# In patent US20090197933A1, “IMIDAZOLINYLMETHYL ARYL SULFONAMIDE” (priority 2008, published 2009):
# Legend:
# alpha-1A adrenoceptors = biological target: T1, alpha-1A adrenoceptors (Homo sapiens, UniProt P35348); assay: alpha-1A adrenoceptor partial agonist activity (intrinsic activity and pEC50); assay type: cell-based
# T1 sequence (P35348 1-466): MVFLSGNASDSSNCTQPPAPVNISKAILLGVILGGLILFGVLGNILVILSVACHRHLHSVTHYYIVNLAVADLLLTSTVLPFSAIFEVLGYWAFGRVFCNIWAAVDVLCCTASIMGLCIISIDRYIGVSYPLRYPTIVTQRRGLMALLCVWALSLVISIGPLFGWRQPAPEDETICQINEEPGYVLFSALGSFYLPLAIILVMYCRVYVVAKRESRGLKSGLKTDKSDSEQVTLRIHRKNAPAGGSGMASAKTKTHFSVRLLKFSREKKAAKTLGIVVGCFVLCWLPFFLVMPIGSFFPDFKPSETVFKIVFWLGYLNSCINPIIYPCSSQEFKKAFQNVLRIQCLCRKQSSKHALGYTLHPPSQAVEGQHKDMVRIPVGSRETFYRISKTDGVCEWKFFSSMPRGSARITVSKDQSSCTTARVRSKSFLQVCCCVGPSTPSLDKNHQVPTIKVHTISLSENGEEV
# [1] = system: Female, Dutch Belted rabbits; assay: Anesthetized rabbit model: intraurethral pressure (IUP) and mean arterial blood pressure (MAP); assay type: in vivo; details: i.v.; for durability of IUP response over time: slope of IUP response 2-7 minutes post the first peak, top 3 doses
# Protocol: In general, IUP is the intraurethral pressure and is measured as the 2 minute mean from the first peak of the urethral response (FIG. 1). MAP is the mean arterial blood pressure and is measured as the average blood pressure during the 2 minute section where IUP is measured. The durability is the slope of the IUP response in mmHg/min and is calculated immediately after the 2 minute IUP response for 5 minutes (2-7 minutes post the first peak) for the top 3 doses.
# Surgery: Female, Dutch Belted rabbits (1.20-2.0 kg, Myrtle's Rabbitry, Tenn.) were anesthetized with isoflurane (3.0% at 2 to 4 L/min) and urethane (1.5 grams/kg, s.c.). In preparation for surgery, the rabbits were shaved, scrubbed (i.e., perineal area, ventral neck, and ventral, caudal surface of the abdomen) and were administered Ringers Lactate Solution (s.c.) to maintain fluids. The femoral vein and carotid artery were isolated and cannulated with PE-50 and PE-90 tubing (Becton-Dickinson), respectively, for the administration of drugs (vein) and the measurement of blood pressure (artery). An abdominal incision was made, exposing the ureters and the bladder. The ureters were isolated and cannulated proximal to the urinary bladder with PE-50 tubing, to drain urine from the kidneys. […]
# Experiment: The arterial cannula was connected to a P23XL pressure transducer (Grass Technologies, West Warwick, R.I.) and the arterial pressure transducer and Unisensor urethral transducer catheter were connected to an Gould 13-6615-50 amplifier (Data Sciences International, St. Paul, Minn.) and Gould TA6000 recorder (Data Sciences International, St. Paul, Minn.) in parallel. All data was analyzed using Power Lab Chart version 5.0.2 (ADInstruments, Colorado Springs, Colo.) data acquisition system. […]
# Measurements: The change in IUP and MAP from baseline were measured as well as the slope of the IUP response. MAP was first calculated according to the following formula, where Pd is diastolic pressure and Ps is systolic pressure: MAP=Pd+⅓ (Ps−Pd). Pre-dose baseline values for IUP and MAP were assessed during a 2 min period just prior to vehicle or test compound administration. Post-dose values for IUP or MAP were determined during a 2 min period at the first peak in the IUP tracing following vehicle or test compound administration. The change in IUP and MAP induced by vehicle or test compound were then calculated by subtracting the pre-dose value from the post-dose value. The rate of decline (mmHg/min) in the IUP response was determined by taking the average slope during the 5 min. period immediately following the 2 min. efficacy measurement for the top three doses. […]
compound,measurement,setting,value
"Cc1c(CC2=NCCN2)ccc(NS(C)(=O)=O)c1F [Formula I, N-[4-(4,5-Dihydro-1H-imidazol-2-ylmethyl)-2-fluoro-3-methyl-phenyl]-methanesulfonamide]","intrinsic activity, or efficacy, as a partial agonist",alpha-1A adrenoceptors; ideally between 0.35 to 0.60,0.46
same,EC50,"alpha-1A adrenoceptors; read-out: affinity, or pEC50 value (converted)",0.631 µM
same,maximum increase in MAP (arterial blood pressure),[1],10.62 mmHg
same,selectivity for enhancement of intraurethral pressure (IUP) over blood pressure (MAP) (Urethral Selectivity MAP/IUP = ED10 of MAP/ED10 of IUP),[1]; at the 10 mmHg change in IUP level,2.13 fold
same,durability of IUP response over time,[1],improved durability of IUP response over time
same,durability of IUP response over time,[1]; listed as formula I,increased durability of IUP response over time
